According to the NIST ThermoML archive (doi:10.1016/j.tca.2015.01.012):
Several values for one entry are separate records, joined by “and”; a condition that tells them apart may be missing. Identical values can stand only once.

Assay: molar heat capacity at constant pressure
Settings: 101.33 kPa, Crystal, Small (less than 1 g) adiabatic calorimetry

O=C(O)c1cccnc1 [3-carboxylpyridine]
Settings	molar heat capacity at constant pressure
1 K	0.0015 J/K/mol
2 K	0.0121 J/K/mol
3 K	0.0409 J/K/mol
4 K	0.0968 J/K/mol
5 K	0.1891 J/K/mol
5.3 K	0.2521 J/K/mol
5.53 K	0.2833 J/K/mol
5.71 K	0.3119 J/K/mol
5.9 K	0.3323 J/K/mol
6 K	0.3359 J/K/mol
6.07 K	0.3625 J/K/mol
6.23 K	0.3927 J/K/mol
6.39 K	0.3921 J/K/mol
6.55 K	0.4232 J/K/mol
6.7 K	0.4579 J/K/mol
6.86 K	0.5025 J/K/mol
7 K	0.5397 J/K/mol
7.03 K	0.5557 J/K/mol
7.19 K	0.5983 J/K/mol
7.36 K	0.6211 J/K/mol
7.52 K	0.6706 J/K/mol
7.69 K	0.6993 J/K/mol
7.84 K	0.7188 J/K/mol
8 K	0.7924 J/K/mol and 0.8151 J/K/mol
8.17 K	0.8389 J/K/mol
8.34 K	0.8744 J/K/mol
8.51 K	0.9394 J/K/mol
8.68 K	1.001 J/K/mol
8.86 K	1.063 J/K/mol
9 K	1.099 J/K/mol
9.03 K	1.093 J/K/mol
9.21 K	1.135 J/K/mol
9.38 K	1.246 J/K/mol
9.56 K	1.315 J/K/mol
9.73 K	1.428 J/K/mol
9.92 K	1.479 J/K/mol
10 K	1.48 J/K/mol
10.17 K	1.542 J/K/mol
10.5 K	1.674 J/K/mol
10.82 K	1.86 J/K/mol
11.15 K	2.012 J/K/mol
11.48 K	2.15 J/K/mol
11.83 K	2.356 J/K/mol
12.19 K	2.553 J/K/mol
12.55 K	2.742 J/K/mol
12.92 K	2.969 J/K/mol
13.29 K	3.19 J/K/mol
13.67 K	3.425 J/K/mol
14.06 K	3.628 J/K/mol
14.45 K	3.87 J/K/mol
14.84 K	4.121 J/K/mol
15 K	4.221 J/K/mol
15.23 K	4.365 J/K/mol
15.63 K	4.629 J/K/mol
16.04 K	4.894 J/K/mol
16.44 K	5.19 J/K/mol
16.85 K	5.494 J/K/mol
17.27 K	5.794 J/K/mol
17.67 K	6.094 J/K/mol
18.09 K	6.421 J/K/mol
18.52 K	6.77 J/K/mol
18.95 K	7.125 J/K/mol
19.38 K	7.466 J/K/mol
19.82 K	7.809 J/K/mol
20 K	7.998 J/K/mol
20.68 K	8.601 J/K/mol
22 K	9.701 J/K/mol
23.36 K	10.88 J/K/mol
24.74 K	12.09 J/K/mol
25 K	12.34 J/K/mol
26.14 K	13.4 J/K/mol
27.57 K	14.79 J/K/mol
29.02 K	16.15 J/K/mol
30 K	17.11 J/K/mol
30.49 K	17.6 J/K/mol
31.97 K	18.99 J/K/mol
33.48 K	20.37 J/K/mol
34.99 K	21.77 J/K/mol
35 K	21.76 J/K/mol
36.53 K	23.11 J/K/mol
38.07 K	24.44 J/K/mol
39.63 K	25.75 J/K/mol
40 K	26.08 J/K/mol
41.2 K	27.05 J/K/mol
42.78 K	28.38 J/K/mol
44.36 K	29.6 J/K/mol
45 K	30.14 J/K/mol
45.95 K	30.92 J/K/mol
47.56 K	32.14 J/K/mol
49.17 K	33.43 J/K/mol
50 K	33.99 J/K/mol
50.79 K	34.59 J/K/mol
52.41 K	35.8 J/K/mol
54.04 K	36.96 J/K/mol
55.68 K	38.11 J/K/mol
57.33 K	39.19 J/K/mol
58.97 K	40.29 J/K/mol
60 K	40.99 J/K/mol
60.63 K	41.38 J/K/mol
62.28 K	42.42 J/K/mol
63.94 K	43.46 J/K/mol
65.61 K	44.41 J/K/mol
67.28 K	45.36 J/K/mol
68.95 K	46.38 J/K/mol
70 K	47 J/K/mol
70.62 K	47.37 J/K/mol
72.71 K	48.52 J/K/mol
75.22 K	49.8 J/K/mol
77.73 K	51.14 J/K/mol
80 K	52.23 J/K/mol
80.25 K	52.35 J/K/mol
80.98 K	52.79 J/K/mol
82.78 K	53.53 J/K/mol
84.21 K	54.31 J/K/mol
85.31 K	54.74 J/K/mol
86.73 K	55.5 J/K/mol
87.85 K	55.91 J/K/mol
89.25 K	56.68 J/K/mol
90 K	56.95 J/K/mol
90.39 K	57.08 J/K/mol
91.78 K	57.81 J/K/mol
94.31 K	59 J/K/mol
96.84 K	60.11 J/K/mol
99.38 K	61.16 J/K/mol
100 K	61.37 J/K/mol
101.92 K	62.18 J/K/mol
104.47 K	63.23 J/K/mol
107.02 K	64.34 J/K/mol
109.57 K	65.35 J/K/mol
110 K	65.59 J/K/mol
112.12 K	66.36 J/K/mol
114.68 K	67.47 J/K/mol
117.24 K	68.52 J/K/mol
119.81 K	69.55 J/K/mol
120 K	69.67 J/K/mol
122.39 K	70.55 J/K/mol
124.96 K	71.54 J/K/mol
127.53 K	72.56 J/K/mol
130 K	73.64 J/K/mol
130.1 K	73.62 J/K/mol
132.68 K	74.7 J/K/mol
135.26 K	75.71 J/K/mol
137.83 K	76.72 J/K/mol
140 K	77.53 J/K/mol
140.41 K	77.7 J/K/mol
142.99 K	78.8 J/K/mol
145.58 K	79.79 J/K/mol
148.16 K	80.74 J/K/mol
150 K	81.39 J/K/mol
150.75 K	81.72 J/K/mol
153.33 K	82.67 J/K/mol
155.92 K	83.7 J/K/mol
158.51 K	84.71 J/K/mol
160 K	85.26 J/K/mol
161.1 K	85.73 J/K/mol
163.71 K	86.79 J/K/mol
166.31 K	87.79 J/K/mol
168.9 K	88.81 J/K/mol
170 K	89.19 J/K/mol
171.49 K	89.87 J/K/mol
174.09 K	90.88 J/K/mol
176.68 K	91.97 J/K/mol
179.28 K	92.85 J/K/mol
180 K	93.23 J/K/mol
181.87 K	93.96 J/K/mol
184.47 K	95.03 J/K/mol
187.07 K	96.11 J/K/mol
189.66 K	97.14 J/K/mol
190 K	97.4 J/K/mol
192.26 K	98.33 J/K/mol
194.86 K	99.43 J/K/mol
197.45 K	100.6 J/K/mol
200 K	101.7 J/K/mol
200.05 K	101.7 J/K/mol
202.65 K	102.8 J/K/mol
205.28 K	104.1 J/K/mol
207.88 K	105.2 J/K/mol
210 K	106.3 J/K/mol
210.48 K	106.4 J/K/mol
213.09 K	107.6 J/K/mol
215.69 K	109 J/K/mol
218.3 K	110 J/K/mol
220 K	110.9 J/K/mol
220.91 K	111.3 J/K/mol
223.52 K	112.6 J/K/mol
226.13 K	113.8 J/K/mol
228.74 K	115.2 J/K/mol
230 K	115.8 J/K/mol
231.36 K	116.7 J/K/mol
233.98 K	117.7 J/K/mol
236.59 K	119.1 J/K/mol
239.21 K	120.4 J/K/mol
240 K	120.8 J/K/mol
241.83 K	121.8 J/K/mol
244.45 K	123.1 J/K/mol
247.11 K	124.5 J/K/mol
249.74 K	125.8 J/K/mol
250 K	125.8 J/K/mol
252.36 K	127.1 J/K/mol
254.98 K	128.5 J/K/mol
257.61 K	129.8 J/K/mol
260 K	131 J/K/mol
260.24 K	131.1 J/K/mol
262.86 K	132.5 J/K/mol
265.49 K	134 J/K/mol
268.12 K	135.3 J/K/mol
270 K	136.3 J/K/mol
270.75 K	136.7 J/K/mol
273.15 K	137.9 J/K/mol
273.38 K	138.2 J/K/mol
276.01 K	139.3 J/K/mol
278.63 K	140.8 J/K/mol
280 K	141.6 J/K/mol
281.26 K	142.3 J/K/mol
283.88 K	143.5 J/K/mol
286.5 K	144.8 J/K/mol
289.15 K	146.5 J/K/mol
290 K	146.9 J/K/mol
291.77 K	147.8 J/K/mol
294.38 K	149.3 J/K/mol
296.99 K	150.7 J/K/mol
298.15 K	151.3 J/K/mol
299.59 K	152.1 J/K/mol
300 K	152.3 J/K/mol
302.64 K	153.7 J/K/mol
306.07 K	155.5 J/K/mol
309.49 K	157.1 J/K/mol
310 K	157.7 J/K/mol
312.9 K	159 J/K/mol
316.3 K	161.2 J/K/mol
319.71 K	162.9 J/K/mol
320 K	163.1 J/K/mol
323.11 K	164.8 J/K/mol
326.5 K	166.8 J/K/mol
329.88 K	168.6 J/K/mol
330 K	168.5 J/K/mol
333.26 K	170.6 J/K/mol
336.64 K	172.4 J/K/mol
340 K	174 J/K/mol
343.36 K	175.7 J/K/mol
346 K	177.3 J/K/mol
346.71 K	177.4 J/K/mol
